From article PMC7044277 (Nature Communications, 2020)
Where “and” joins values, the source holds several entries; their conditions need not be identical. Identical values can stand only once.

Columns and labels:
Format in all cases: cell-based
Set-up in all cases: GPCRome screening signal at PTGIR / GPCRome screening signal at PTH1R / GPCRome screening signal at PTH2R / GPCRome screening signal at QRFP / GPCRome screening signal at RXFP2 / GPCRome screening signal at RXFP3 / GPCRome screening signal at RXFP4 / GPCRome screening signal at S1PR2 / GPCRome screening signal at S1PR3 / GPCRome screening signal at S1PR4 / GPCRome screening signal at S1PR5 / GPCRome screening signal at SCTR / GPCRome screening signal at SSTR2 / GPCRome screening signal at SSSTR / GPCRome screening signal at SSTR4 / GPCRome screening signal at SSTR5 / GPCRome screening signal at SUCNR1 / GPCRome screening signal at TA1 / GPCRome screening signal at TAAR2 / GPCRome screening signal at TAAR5 / GPCRome screening signal at TAAR6 / GPCRome screening signal at TAAR8 / GPCRome screening signal at TACR1 / GPCRome screening signal at TACR2 / GPCRome screening signal at TACR3 / GPCRome screening signal at TBXA2R / GPCRome screening signal at TSHR / GPCRome screening signal at UTS2R / GPCRome screening signal at VIPR2 / GPCRome screening signal at GPR68 no V2 Tail / GPCRome screening signal at GRM2 / GPCRome screening signal at GRM3: reference not given here
[1] = biological target: 320 non-olfactory GPCRs (Homo sapiens, UniProt P31391); conditions: receptor SSTR4
Chain of 320 non-olfactory GPCRs (Homo sapiens, UniProt P31391) (P31391 whole entry): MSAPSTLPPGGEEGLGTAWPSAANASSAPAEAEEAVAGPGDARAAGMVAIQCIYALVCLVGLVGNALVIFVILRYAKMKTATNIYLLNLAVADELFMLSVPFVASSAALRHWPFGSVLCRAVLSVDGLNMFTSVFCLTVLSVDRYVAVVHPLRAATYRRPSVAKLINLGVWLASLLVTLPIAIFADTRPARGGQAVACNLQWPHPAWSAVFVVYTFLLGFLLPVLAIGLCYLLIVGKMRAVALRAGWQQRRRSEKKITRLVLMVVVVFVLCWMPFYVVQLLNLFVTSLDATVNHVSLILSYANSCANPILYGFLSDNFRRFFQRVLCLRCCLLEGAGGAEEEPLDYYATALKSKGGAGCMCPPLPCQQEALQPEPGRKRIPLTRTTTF

[2] = biological target: 320 non-olfactory GPCRs (Homo sapiens, UniProt P25103); conditions: receptor TACR1
Chain of 320 non-olfactory GPCRs (Homo sapiens, UniProt P25103) (P25103 whole entry): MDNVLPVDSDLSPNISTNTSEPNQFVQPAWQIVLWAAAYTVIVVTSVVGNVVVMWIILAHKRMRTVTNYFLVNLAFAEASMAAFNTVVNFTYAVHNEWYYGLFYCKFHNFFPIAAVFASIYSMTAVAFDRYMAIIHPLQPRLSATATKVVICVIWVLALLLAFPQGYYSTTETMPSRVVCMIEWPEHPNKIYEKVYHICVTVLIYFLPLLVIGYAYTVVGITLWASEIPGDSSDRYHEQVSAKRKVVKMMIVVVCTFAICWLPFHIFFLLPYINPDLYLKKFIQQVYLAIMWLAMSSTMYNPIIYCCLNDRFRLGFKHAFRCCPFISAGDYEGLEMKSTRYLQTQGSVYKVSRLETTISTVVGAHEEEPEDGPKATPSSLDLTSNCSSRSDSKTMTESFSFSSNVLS

[3] = biological target: T1, 320 non-olfactory GPCRs (Homo sapiens, UniProt O95136); conditions: receptor S1PR2
T1 construct: expressed in transfected cells; host or cells: HTLA cells
T1 sequence (O95136 whole entry): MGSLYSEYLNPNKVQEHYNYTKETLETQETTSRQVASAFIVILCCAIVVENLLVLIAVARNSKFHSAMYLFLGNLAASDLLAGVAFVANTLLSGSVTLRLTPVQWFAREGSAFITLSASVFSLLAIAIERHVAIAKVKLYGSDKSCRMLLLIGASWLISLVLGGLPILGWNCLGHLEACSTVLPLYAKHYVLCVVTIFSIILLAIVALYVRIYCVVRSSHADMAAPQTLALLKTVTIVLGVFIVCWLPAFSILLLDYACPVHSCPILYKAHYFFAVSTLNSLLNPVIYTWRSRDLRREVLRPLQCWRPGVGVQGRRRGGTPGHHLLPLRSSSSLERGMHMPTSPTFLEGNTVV

[4] = biological target: 320 non-olfactory GPCRs (Homo sapiens, UniProt P30872); conditions: receptor SSTR1
Chain of 320 non-olfactory GPCRs (Homo sapiens, UniProt P30872) (P30872 whole entry): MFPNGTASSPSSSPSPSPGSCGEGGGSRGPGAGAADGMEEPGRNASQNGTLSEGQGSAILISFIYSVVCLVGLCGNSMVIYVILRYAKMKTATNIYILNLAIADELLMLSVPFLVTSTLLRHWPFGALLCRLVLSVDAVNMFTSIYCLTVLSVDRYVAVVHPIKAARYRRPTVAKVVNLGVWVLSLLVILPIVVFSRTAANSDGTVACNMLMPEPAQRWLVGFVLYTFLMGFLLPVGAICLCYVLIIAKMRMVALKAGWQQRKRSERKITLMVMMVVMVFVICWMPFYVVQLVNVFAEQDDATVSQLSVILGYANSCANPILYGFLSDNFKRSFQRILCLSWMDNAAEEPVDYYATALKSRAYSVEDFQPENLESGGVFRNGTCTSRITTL

[5] = Fig_5f, single replicate values
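Throughout, for GPCRome agonism screen response: fold over basal response of each receptor without drug.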

Row | GPCRome screening signal at SSTR4 [1, 5] | GPCRome screening signal at TACR1 [2, 5] | GPCRome screening signal at S1PR2 [3, 5] | GPCRome screening signal at SSTR1 [4, 5] | SMILES | GPCRome agonism screen response ([1]; replicate values, Fig_4g) | GPCRome agonism screen response ([2]; replicate values, Fig_4g) | GPCRome agonism screen response ([3]; replicate values, Fig_4g) | GPCRome agonism screen response ([4]; replicate values, Fig_4g)
1 |  |  |  |  | CCOc1cccc2cc(C(C)NCC3(O)CCCCC3)oc12 (centres unmarked) [O4LE6] | 1.584 and 2.327 and 0.4288 and 0.2624 | 1.178 and 0.9848 and 1.177 and 1.1855 | 2.111 and 0.9213 and 3.313 and 1.2731 | 1.245 and 0.3022 and 1.123 and 1.305
2 | 1.303 and 1.0005 and 1.096 and 1.043 | 1.29 and 1.225 and 0.9839 and 1.172 | 2.447 and 1.17 and 1.142 and 1.029 | 2.563 and 1.311 and 1.193 and 0.9402 | CCOc1ccccc1CCC(C)NCC1(O)CCCCC1.Cl (racemic) [Fig_5f] |  |  |  | 
